In one experiment the target is amylin aggregates (Homo sapiens, UniProt P10997). It is filed as binding.
The next experiment has as its target AD brain samples. The conditions noted are these: cited from earlier work.

Molecules are shown by their SMILES.

Sequence of amylin aggregates (P10997 34-70): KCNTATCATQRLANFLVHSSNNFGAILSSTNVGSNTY

On to `CNc1ccc(/C=C/c2ccc(OCCOCCOCCF)nc2)cc1` [AV-45, (E)-4-(2-(6-(2-(2-(2-fluoroethoxy)ethoxy)ethoxy)pyridin-3-yl)vinyl)-N-methylaniline], for which the Ki (commonly a dissociation constant, usually derived from enzyme kinetics or from competition with a known ligand) on amylin aggregates is 0.501 ± 0.0408 µM; on AD brain samples, 0.0067 µM.

The values above are taken from paper PMC4139942 (Scientific Reports, 2014).
